The nature of the test: Inhibition of platelet aggregation using human platelet rich plasma (hPRP) assay (200microL, 2-3 x 10e 8 platelets/mL, n=1).

pIC50: −log10 of the molar value.

Molecule `CC(C)[C@H]1NC(=O)C/C=C\CNC(=O)[C@H](CC(=O)O)NC(=O)CNC(=O)[C@H](CCCN=C(N)N)N(C)C1=O` [[(Z)-(3R,9R,12R)-9-(3-Guanidino-propyl)-12-isopropyl-10-methyl-2,5,8,11,14-pentaoxo-1,4,7,10,13pentaaza-cyclooctadec-16-en-3-yl]-acetic acid] gave a pIC50 of 6.70.
The molecule `CC(C)[C@H]1NC(=O)C2=CC=C(CNC(=O)[C@H](CC(=O)O)NC(=O)CNC(=O)[C@H](CCCNC(=N)N)N(C)C1=O)O2` [[(5S,11S,14S)-11-(3-Guanidino-propyl)-14-isopropyl-12-methyl-4,7,10,13,16-pentaoxo-20-oxa-3,6,9,12,15-pentaaza-bicyclo[15.2.1]icosa-1(19),17-dien-5-yl]-acetic acid] had a pIC50 of 7.30.
As for `CC(C)[C@H]1NC(=O)c2cccc(c2)CNC(=O)[C@H](CC(=O)O)NC(=O)CNC(=O)[C@H](CCCNC(=N)N)N(C)C1=O` [DMP-757], the figure is 7.70.
As for `CC(C)[C@H]1NC(=O)/C=C\CCNC(=O)[C@H](CC(=O)O)NC(=O)CNC(=O)[C@H](CCCNC(=N)N)N(C)C1=O` [[(Z)-(3R,9R,12R)-9-(3-Guanidino-propyl)-12-isopropyl-10-methyl-2,5,8,11,14-pentaoxo-1,4,7,10,13pentaaza-cyclooctadec-15-en-3-yl]-acetic acid], the figure is 6.70.
In turn, `CC(C)[C@H]1NC(=O)c2ccc([nH]2)CNC(=O)[C@H](CC(=O)O)NC(=O)CNC(=O)[C@H](CCCNC(=N)N)N(C)C1=O` [[(5S,11S,14S)-11-(3-Guanidino-propyl)-14-isopropyl-12-methyl-4,7,10,13,16-pentaoxo-3,6,9,12,15,20-hexaaza-bicyclo[15.2.1]icosa-1(19),17-dien-5-yl]-acetic acid] showed a negative-log IC50 (pIC50) of 7.00.
As for `CC(C)[C@H]1NC(=O)c2cccc(n2)CNC(=O)[C@H](CC(=O)O)NC(=O)CNC(=O)[C@H](CCCN=C(N)N)N(C)C1=O` [[(5S,11S,14S)-11-(3-Guanidino-propyl)-14-isopropyl-12-methyl-4,7,10,13,16-pentaoxo-3,6,9,12,15,21-hexaaza-bicyclo[15.3.1]henicosa-1(21),17,19-trien-5-yl]-acetic acid], the figure is 5.70; as for `CC(C)[C@H]1NC(=O)c2cccc(c2F)CNC(=O)[C@H](CC(=O)O)NC(=O)CNC(=O)[C@H](CCCN=C(N)N)N(C)C1=O` [[(5S,11S,14S)-21-Fluoro-11-(3-guanidino-propyl)-14-isopropyl-12-methyl-4,7,10,13,16-pentaoxo-3,6,9,12,15-pentaaza-bicyclo[15.3.1]henicosa-1(20),17(21),18-trien-5-yl]-acetic acid], 7.70; as for `CC(C)[C@H]1NC(=O)Cc2csc(n2)NC(=O)[C@H](CC(=O)O)NC(=O)CNC(=O)[C@H](CCCN=C(N)N)N(C)C1=O` [[(4S,10S,13S)-10-(3-Guanidino-propyl)-13-isopropyl-11-methyl-3,6,9,12,15-pentaoxo-19-thia-2,5,8,11,14,20-hexaaza-bicyclo[15.2.1]icosa-1(20),17-dien-4-yl]-acetic acid], 6.40.
As for `CC(C)[C@H]1NC(=O)C2=CC=C(CNC(=O)[C@H](CC(=O)O)NC(=O)CNC(=O)[C@H](CCCN=C(N)N)N(C)C1=O)S2` [[(5S,11S,14S)-11-(3-Guanidino-propyl)-14-isopropyl-12-methyl-4,7,10,13,16-pentaoxo-20-thia-3,6,9,12,15-pentaaza-bicyclo[15.2.1]icosa-1(19),17-dien-5-yl]-acetic acid], the figure is 7.00.

The values are drawn from BindingDB's records for doi:10.1016/0960-894X(95)00351-S (1995).
